# Biological target: recombinant human KIT tyrosine kinase protein (Homo sapiens (Human), UniProt P10721)
# Experiment: KIT tyrosine kinase assay (ADP-Glo)
# Type: biochemical
# Conditions: @10 uM
# Procedure: An in vitro assay utilizing the recombinant human KIT tyrosine kinase protein was developed to measure compound inhibition of KIT. KIT tyrosine kinase activity was measured by the ADP-Glo Kinase Assay system with poly […]) peptide substrate. Kinase Assay was performed in white 384-well plates and the luminescence was measured by Victor X5 Multilabel Counter (Perkin Elmer). Recombinant intracellular domain of human KIT protein was purchased from Carna Biosciences (Kobe, Japan). Poly […]) peptide was purchased from Sigma-Aldrich (St. Louis, Missouri, USA). ADP-Glo Kinase Assay reagent was purchased from Promega (Madison, Wisconsin, USA). Each test compound was dissolved in 100% DMSO to prepare 10 mM stock solutions. […] After the preincubation, 3 μL of substrate/ATP mixture was added and incubated for 1 hour at room temperature. The tyrosine phosphorylation by KIT kinase was quantified by ADP-Glo kinase assay kit following the manufacturer's protocol. Briefly, the phosphorylation reaction was terminated by adding 10 μL ADP-Glo reagent and incubated for 60 minutes at room temperature. 20 μL of Kinase Detection Reagent was added to each well and luminescence was measured by plate reader. […] Half maximal inhibitory concentration (IC50) was calculated by a Four […] Logistic Regression model using GraphPad Prism (GraphPad Software). The value without recombinant KIT protein and without test compound was used as a negative control (assay background).
# Sequence of recombinant human KIT tyrosine kinase protein (P10721 546-976): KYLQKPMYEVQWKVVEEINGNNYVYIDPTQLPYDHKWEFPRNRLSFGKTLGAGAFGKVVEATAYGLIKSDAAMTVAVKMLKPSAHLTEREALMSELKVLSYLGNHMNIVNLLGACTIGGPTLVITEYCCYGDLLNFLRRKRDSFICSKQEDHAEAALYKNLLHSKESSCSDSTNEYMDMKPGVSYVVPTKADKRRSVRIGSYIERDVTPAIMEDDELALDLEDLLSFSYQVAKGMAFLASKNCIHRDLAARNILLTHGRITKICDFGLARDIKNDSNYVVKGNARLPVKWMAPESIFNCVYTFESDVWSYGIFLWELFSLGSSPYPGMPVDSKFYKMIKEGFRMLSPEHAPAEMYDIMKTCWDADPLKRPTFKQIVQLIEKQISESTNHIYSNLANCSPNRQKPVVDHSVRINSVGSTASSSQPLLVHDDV
row,KIT % at single concentration (printed in KIT IC50 column) [%@10 uM],SMILES
1,59,"CC(c1ccc(CNC(=O)c2ccc3c(c2)[nH]c(=O)n3C)cn1)N1CCC(C(F)(F)F)C1 (centres unmarked) [Example 112, 1-Methyl-2-oxo-N-((6-(1-(3-(trifluoromethyl)pyrrolidin-1-yl)ethyl)pyridin-3-yl)methyl)-2,3-dihydro-1H-benzimidazole-5-carboxamide]"

# Same assay, conditions: Table 98
row,SMILES,IC50 [nM]
1,"CC(c1ccccc1)N(C)c1ccc(CNC(=O)c2ccc3c(c2)[nH]c(=O)n3C)cn1 (single isomer, unassigned) [82 Peak 1]",180
2,"CC(c1ccccc1)N(C)c1ccc(CNC(=O)c2ccc3c(c2)[nH]c(=O)n3C)cn1 (single isomer, unassigned) [82 Peak 2]",29
3,Cn1c(=O)[nH]c2cc(C(=O)NCc3ccc(Oc4ccc(Cl)c(F)c4)nc3)ccc21 [Example 38],60
4,Cn1c(=O)[nH]c2cc(C(=O)NCc3ccc(Oc4c(F)cccc4F)nc3)ccc21 [Example 40],39
5,Cn1c(=O)[nH]c2cc(C(=O)NCc3ccc(Oc4cc(F)ccc4F)nc3)ccc21 [Example 41],36
6,Cn1c(=O)[nH]c2cc(C(=O)NCc3ccc(Oc4c(F)cc(F)cc4F)nc3)ccc21 [Example 42],27
7,Cc1cc(CNC(=O)c2ccc3c(c2)[nH]c(=O)n3C)cnc1Oc1ccccc1 [Example 43],140
8,Cn1c(=O)[nH]c2cc(C(=O)NCc3ccc(Oc4ccc5cn[nH]c5c4)nc3)ccc21 [Example 44],120
9,Cc1cc(CNC(=O)c2ccc3c(c2)[nH]c(=O)n3C)cnc1Oc1ccc(F)cc1 [Example 45],130
10,Cn1c(=O)[nH]c2cc(C(=O)NCc3ccc(Oc4ccc5[nH]ncc5c4)nc3)ccc21 [Example 46],27
11,Cn1c(=O)[nH]c2cc(C(=O)NCc3ccc(OC4CCC(F)(F)CC4)nc3)ccc21 [Example 47],56
12,Cn1c(=O)[nH]c2cc(C(=O)NCc3cnc(Oc4ccc(F)cc4)cn3)ccc21 [Example 49],950
13,CC(NC(=O)c1ccc2c(c1)[nH]c(=O)n2C)c1ccc(Oc2ccc(F)c(F)c2)nc1 (centres unmarked) [Example 51],210
14,CC(NC(=O)c1ccc2c(c1)[nH]c(=O)n2C)c1ccc(Oc2ccc(Cl)cc2F)nc1 (centres unmarked) [Example 52],24
15,CC(NC(=O)c1ccc2c(c1)[nH]c(=O)n2C)c1ccc(Oc2cccc(F)c2F)nc1 (centres unmarked) [Example 53],79
16,C[C@H](NC(=O)c1ccc2c(c1)[nH]c(=O)n2C)c1ccc(Oc2ccc(Cl)cc2F)nc1 [Example 54],33
17,C[C@H](NC(=O)c1ccc2c(c1)[nH]c(=O)n2C)c1ccc(Oc2cccc(F)c2F)nc1 [Example 55],37
18,CN(c1ccc(F)cc1)c1ccc(CNC(=O)c2ccc3[nH]c(=O)[nH]c3c2)cn1 [Example 56],29
19,CN(c1ccc(CNC(=O)c2ccc3c(c2)[nH]c(=O)n3C)cn1)C1CCOCC1 [Example 60],140
20,Cc1ccc(N(C)c2ccc(CNC(=O)c3ccc4c(c3)[nH]c(=O)n4C)cn2)cn1 [Example 63],37
21,Cc1ccc(CN(C)c2ccc(CNC(=O)c3ccc4c(c3)[nH]c(=O)n4C)cn2)nc1 [Example 79],210
22,CN(Cc1ccncn1)c1ccc(CNC(=O)c2ccc3c(c2)[nH]c(=O)n3C)cn1 [Example 81],150
23,CCN(CC)c1ccc(CNC(=O)c2ccc3c(c2)[nH]c(=O)n3C)cn1 [Example 85],150
24,Cn1c(=O)[nH]c2cc(C(=O)NCc3ccc(N(C)[C@H]4C[C@H](C(F)(F)F)C4)nc3)ccc21 [Example 87],68
25,C[C@H](NC(=O)c1ccc2c(c1)[nH]c(=O)n2C)c1ccc(N(C)c2ccccc2F)nc1 [Example 88],98
26,CN(Cc1ccccc1)c1ncc(CNC(=O)c2ccc3c(c2)[nH]c(=O)n3C)s1 [Example 91],120
27,CN(CC1CC(F)(F)C1)c1ncc(CNC(=O)c2ccc3c(c2)[nH]c(=O)n3C)s1 [Example 93],270
28,CC(C)N(C)c1cnc(CNC(=O)c2ccc3c(c2)[nH]c(=O)n3C)cn1 [Example 94],120
29,Cn1c(=O)[nH]c2cc(C(=O)NCc3cnc4c(c3)ncn4-c3ccccc3F)ccc21 [Example 101],3300

# Same assay, conditions: Table 99
row,IC50 [nM],SMILES
1,29,"[2H]C([2H])([2H])n1c(=O)[nH]c2cc(C(=O)NCc3ccc(N(C)[C@H]4C[C@@H](C(F)(F)F)C4)nc3)ccc21 (relative stereo) [Example 116, 1-(Trideuteromethyl)-N-((6-(methyl(cis-3-(trifluoromethyl)cyclobutyl)amino)pyridin-3-yl)methyl)-2-oxo-2,3-dihydro-1H-benzimidazole-5-carboxamide]"
2,36,"CN(c1ccc(CNC(=O)c2ccc3c(c2)[nH]c(=O)n3C)cn1)C1CC(OC(F)F)C1 (single isomer, unassigned) [106 Isomer I, N-((6-((3-(Difluoromethoxy)cyclobutyl)(methyl)amino)pyridin-3-yl)methyl)-1-methyl-2-oxo-2,3-dihydro-1H-benzimidazole-5-carboxamide]"
3,2000,"CC(C)N(C)c1ccc(C(NC(=O)c2ccc3c(c2)[nH]c(=O)n3C)c2ccccc2)cn1 (centres unmarked) [Example 113, N-((6-(Isopropyl(methyl)amino)pyridin-3-yl)(phenyl)methyl)-1-methyl-2-oxo-2,3-dihydr o-1H-benzimidazole-5-carboxamide]"
4,108,"COC(=O)C(NC(=O)c1ccc2c(c1)[nH]c(=O)n2C)c1ccc(N(C)C(C)C)nc1 (centres unmarked) [Example 114a, Methyl 2-(6-(isopropyl(methyl)amino)pyridin-3-yl)-2-(1-methyl-2-oxo-2,3-dihydro-1H-benzimidazole-5-carboxamido)acetate]"
5,317,"CC(C)N(C)c1ccc(C(CO)NC(=O)c2ccc3c(c2)[nH]c(=O)n3C)cn1 (centres unmarked) [Example 114b, N-(2-hydroxy-1-(6-(Isopropyl(methyl)amino)pyridin-3-yl)ethyl)-1-methyl-2-oxo-2,3-dih ydro-1H-benzimidazole-5-carboxamide]"
6,274,CC(C)Oc1ccc(CNC(=O)c2ccc3c(c2)[nH]c(=O)n3C)cn1 [Example 117]
7,632,Cn1c(=O)[nH]c2cc(C(=O)NCc3ccc(OC4CC(F)(F)C4)nc3)ccc21 [Example 118]
8,126,CN(c1ccc(CNC(=O)c2ccc3c(c2)[nH]c(=O)n3C)cn1)C1CCC2(CC1)COC2 [Example 123]
9,131,Cn1c(=O)[nH]c2cc(C(=O)NCc3ccc(NC4CCC(F)(F)CC4)nc3)ccc21 [Example 132]

row,SMILES,IC50 [nM]
1,CC(CO)N(C)c1ccc(CNC(=O)c2ccc3c(c2)[nH]c(=O)n3C)cn1 (centres unmarked) [Example 133],75

# System: M-07e cells
# Experiment: SCF-dependent M-07e cell proliferation assay
# Type: cell-based, human
# Conditions: Homo sapiens, M-07e, 72 h, SCF-dependent M-07e cell proliferation, 3 days, CellTiter Glo; read-out: M-07e IC50
# Procedure: SCF-dependent cell proliferation assay was developed to measure the inhibitory potency of the compounds in M-07e cells, which express wild-type human KIT protein. The assay was performed in 96-well plates and the IC50 of each KIT inhibitor was determined by CellTiter Glo Assay reagent and Victor X5 Multilabel Counter (Perkin Elmer).
# M-07e cells were purchased from AcceGen Biotechnology. Cells were maintained with M-07e Growth medium: RPMI-1640 containing 20% FBS, 100 U/mL penicillin and 100 microgram/mL streptomycin, 10 ng/mL rhGM-CSF, 10 ng/mL rhSCF. M-07e cells were seeded at a density of 5000 cells/90 μL/well in 96-well plates. Test compounds were dissolved in 100% DMSO to make 20 mM stock solution and serially diluted 1:3 with 100% DMSO to make an 11-point dilution series with concen-trations from […] to 0.024 μM. The serially diluted compounds were then each diluted 1:50 with culture medium to obtain assay compound solutions containing 2% DMSO. Ten μL of assay compound solutions were added to the 90 μL of culture cell suspension in the 96-well plate, with a final DMSO concentration of 0.2%. The plates were then incubated in a 5% CO2 incubator at 37° C. for 3 days. To obtain Day Zero Controls for background calculation, cells were seeded at 5000 cells/100 μL in a new 96-well plate and processed on the same day. Both Day Zero controls and 3 day culture plates were then treated as follows. 100 μL of CellTiter Glo Assay reagent was added to each well and the plate was incubated at room temperature for 15 min on a shaker at 200-300 RPM. Then 100 μL of cell lysate samples were transferred to white wall 96-well plates and luminescence was measured by a plate reader. The luminescence of Day Zero Control was subtracted from the luminescence intensity of 3 day culture readings. The assay control for this experiment was cells treated with 0.2% DMSO in culture medium and wells with 100 μL of culture medium (0.2% DMSO without cells) were used as the blank for data analysis.
# The IC50 value of each compound was determined by using % inhibition by nor-malizing inhibition in DMSO treated control wells to 0% using the following formula method: […]
# Plot percent inhibition in proliferation of triplicates against the respective concen-trations of compound and fit the dose response curve using the sigmoidal dose response equation to generate the IC50 in GraphPad Prism 8 software.
row,SMILES,IC50 [nM]
1,"[2H]C([2H])([2H])n1c(=O)[nH]c2cc(C(=O)NCc3ccc(N(C)[C@H]4C[C@@H](C(F)(F)F)C4)nc3)ccc21 (relative stereo) [Example 116, 1-(Trideuteromethyl)-N-((6-(methyl(cis-3-(trifluoromethyl)cyclobutyl)amino)pyridin-3-yl)methyl)-2-oxo-2,3-dihydro-1H-benzimidazole-5-carboxamide]",28
2,"CC(NC(=O)c1ccc2c(c1)[nH]c(=O)n2C)c1ccc(Oc2ccc(F)cc2)nc1 (single isomer, unassigned) [Compound 6 Peak 1, N-(1-(6-(4-Fluorophenoxy)pyridin-3-yl)ethyl)-1-methyl-2-oxo-2,3-dihydro-1H-benzimid azole-5-carboxamide]",680
3,"CN(c1ccc(CNC(=O)c2ccc3c(c2)[nH]c(=O)n3C)cn1)C1CCC(F)(F)CC1 [Compound 10, N-((6-((4,4-Difluorocyclohexyl)(methyl)amino)pyridin-3-yl)methyl)-1-methyl-2-oxo-2,3-dihydro-1H-benzimidazole-5-carboxamide]",240
4,CN(c1ccc(CNC(=O)c2ccc3[nH]c(=O)[nH]c3c2)cn1)C1CCC(F)(F)CC1 [Example 128],2830

# Same assay, conditions: SCF-dependent M-07e cell proliferation, 3 days, CellTiter Glo; read-out: M-07e IC50
row,SMILES,IC50 [nM]
1,"CC(c1ccccc1)N(C)c1ccc(CNC(=O)c2ccc3c(c2)[nH]c(=O)n3C)cn1 (single isomer, unassigned) [82 Peak 1]",6300
2,"CC(c1ccccc1)N(C)c1ccc(CNC(=O)c2ccc3c(c2)[nH]c(=O)n3C)cn1 (single isomer, unassigned) [82 Peak 2]",620
3,"CN(c1ccc(CNC(=O)c2ccc3c(c2)[nH]c(=O)n3C)cn1)C1CC(OC(F)F)C1 (single isomer, unassigned) [106 Isomer I, N-((6-((3-(Difluoromethoxy)cyclobutyl)(methyl)amino)pyridin-3-yl)methyl)-1-methyl-2-oxo-2,3-dihydro-1H-benzimidazole-5-carboxamide]",15
